Like-named read-outs stand apart in the source and are kept apart here.
Assays:
[1] = Population PK of trazodone and gabapentin as single agents in mice; assay type: in vivo; conditions: for D 1 (duration of the zero‐order absorption) / k 12 (intercompartment rate constant) / k 21 (intercompartment rate constant): male mice, fasting, population PK estimate; for Inter‐individual variability ω2 of V / Inter‐individual variability ω2 of k / Inter‐individual variability ω2 of k12: mice, population PK variance estimate; for Vd/F / k el: male, mouse, plasma
[2] = tested on: acetic acid‐induced writhings in male CD‐1 mice; assay: Acetic acid‐induced writhing test in mice with PK/PD model; conditions: for interindividual variability in the k 2, percent coefficient of variation: single‐agent model
plasma protein [3] = conditions: cited from earlier work
plasma protein [4] = conditions: cited from earlier work; remark: listed apart in the source
[5] = tested on: patients with diabetes with peripheral neuropathy / painful distal symmetrical polyneuropathy; conditions: cited from earlier work
[6] = tested on: thermal hyperalgesia in CCI rat model; conditions: cited from earlier work
[7] = gabapentin 10, 30 and 100 mg/kg
[8] = combination model, interaction (synergism), trazodone‐gabapentin 0.075–1.5, 0.15–1.5 mg/kg
[9] = combination model, pure additivity, trazodone‐gabapentin 0.075–1.5, 0.15–1.5 mg/kg
[10] = combination model, pure additivity, trazodone‐gabapentin 0.5–5, 1.5–15 mg/kg
[11] = single model, gabapentin i.p. 1.5, 5 and 15 mg/kg
[12] = 31 patients, oral trazodone 50 or 100 mg/day for 2 weeks

NCC1(CC(=O)O)CCCCC1 [Gabapentin]
D 1 (duration of the zero‐order absorption) [1, 7]: 0.167 h | k 12 (intercompartment rate constant) [1, 7]: 0.935 h⁻¹ | k 21 (intercompartment rate constant) [1, 7]: 0.110 h⁻¹ | Inter‐individual variability ω2 of V [1, 7]: 0.00287 | Inter‐individual variability ω2 of k [1, 7]: 0.337 | Inter‐individual variability ω2 of k12 [1, 7]: 1.43 | Vd/F ([1]; 100 mg/kg): 0.846 L/kg | k el ([1]; 100 mg/kg): 3.11e-05 s⁻¹ | Interindividual variance ω2 of k2 [2, 8]: 1.78 | k 2 (potency parameter) [2, 8]: 817 M⁻¹ s⁻¹ | Interindividual variability ω2 of k2 [2, 9]: 1.67 | k 2 (potency parameter) [2, 9]: 1350 M⁻¹ s⁻¹ | Interindividual variability ω2 of k2 [2, 10]: 1.71 | k 2 (potency parameter) [2, 10]: 667 M⁻¹ s⁻¹ | antinociceptive effect (number of writhes vs vehicle) ([2]; gabapentin alone 1.5 mg/kg i.p.): ineffective | antinociceptive effect (number of writhes vs vehicle) ([2]; gabapentin alone 5 or 15 mg/kg i.p., p < 0.001): significant reduction of the writhes number | Interindividual variability ω2 of k2 [2, 11]: 1.97 | k 2 (potency parameter) [2, 11]: 765 M⁻¹ s⁻¹ | interindividual variability in the k 2, percent coefficient of variation [2]: 140 | plasma protein binding (plasma protein [3]; humans): not protein‐bound | plasma protein binding (plasma protein [4]; mice): not protein‐bound

O=c1n(CCCN2CCN(c3cccc(Cl)c3)CC2)nc2ccccn12 [Trazodone]
Vd/F ([1]; 10 mg/kg): 5.95 L/kg | k el ([1]; 10 mg/kg): 0.000347 s⁻¹ | D 1 (duration of the zero‐order absorption) ([1]; trazodone 1, 3 and 10 mg/kg): 0.0833 h | k 12 (intercompartment rate constant) ([1]; trazodone 1, 3 and 10 mg/kg): 0.982 h⁻¹ | k 21 (intercompartment rate constant) ([1]; trazodone 1, 3 and 10 mg/kg): 1.51 h⁻¹ | Inter‐individual variability ω2 of V ([1]; trazodone 1, 3 and 10 mg/kg): 0.0526 | Inter‐individual variability ω2 of k ([1]; trazodone 1, 3 and 10 mg/kg): 0.00899 | Inter‐individual variability ω2 of k12 ([1]; trazodone 1, 3 and 10 mg/kg): 0.577 | Interindividual variance ω2 of k2 [2, 8]: 1.42 | k 2 (potency parameter) [2, 8]: 182000 M⁻¹ s⁻¹ | Interindividual variability ω2 of k2 [2, 9]: 1.43 | k 2 (potency parameter) [2, 9]: 212000 M⁻¹ s⁻¹ | Interindividual variability ω2 of k2 [2, 10]: 1.40 | k 2 (potency parameter) [2, 10]: 170000 M⁻¹ s⁻¹ | k 2 (potency parameter) ([2]; single model, trazodone o.s. 0.075, 0.15, 0.5, 1.5, 2.5 and 4.5 mg/kg): 182000 M⁻¹ s⁻¹ | Interindividual variability ω2 of k2 ([2]; single model, trazodone o.s. 0.075-4.5 mg/kg): 1.42 | interindividual variability in the k 2, percent coefficient of variation [2]: 119 | antinociceptive effect (number of writhes vs vehicle) ([2]; trazodone alone 0.075 or 0.15 mg/kg o.s.): ineffective | antinociceptive effect (number of writhes vs vehicle) ([2]; trazodone alone 0.5 or 1.5 mg/kg o.s., p < 0.001): significant reduction of the writhes number | plasma protein binding (plasma protein [3]; human, ref internal unpublished data): 97% | patients who experienced complete relief [5, 12]: 22.6% | patients who experienced symptomatic relief [5, 12]: 61.3% | effect on pain and numbness ([5]; six patients with diabetes affected by peripheral neuropathy, 100 mg/day): good effect in pain relief and numbness | effect on thermal hyperalgesia [6]: dose‐dependent analgesic effect | plasma protein binding (plasma protein [4]; mouse, ref internal unpublished data): 89%

From publication PMC10087074 (Clinical and Translational Science, 2023)
